Assay results as given in patent publication US8173771B2, “Humanin receptor or humanin-like polypeptide receptor” (Keio Univeristy, priority 2005, dated 2012).
Peptide text beside a SMILES is read from it.

What was measured:
[1] = molecular target: T1, human WSX-1, human CNTF receptor and human gp130 overexpressed in F11 cells (Homo sapiens, UniProt Q6UWB1); test: Immunofluorescence-based HN binding assay (1) after ectopic overexpression of receptor genes in F11 cells; settings: large amount (10 μM) of non-labeled peptide
T1 construct: His; V5 (C); expressed in transfected cells; host or cells: F11 cells
T1 sequence (Q6UWB1 33-636): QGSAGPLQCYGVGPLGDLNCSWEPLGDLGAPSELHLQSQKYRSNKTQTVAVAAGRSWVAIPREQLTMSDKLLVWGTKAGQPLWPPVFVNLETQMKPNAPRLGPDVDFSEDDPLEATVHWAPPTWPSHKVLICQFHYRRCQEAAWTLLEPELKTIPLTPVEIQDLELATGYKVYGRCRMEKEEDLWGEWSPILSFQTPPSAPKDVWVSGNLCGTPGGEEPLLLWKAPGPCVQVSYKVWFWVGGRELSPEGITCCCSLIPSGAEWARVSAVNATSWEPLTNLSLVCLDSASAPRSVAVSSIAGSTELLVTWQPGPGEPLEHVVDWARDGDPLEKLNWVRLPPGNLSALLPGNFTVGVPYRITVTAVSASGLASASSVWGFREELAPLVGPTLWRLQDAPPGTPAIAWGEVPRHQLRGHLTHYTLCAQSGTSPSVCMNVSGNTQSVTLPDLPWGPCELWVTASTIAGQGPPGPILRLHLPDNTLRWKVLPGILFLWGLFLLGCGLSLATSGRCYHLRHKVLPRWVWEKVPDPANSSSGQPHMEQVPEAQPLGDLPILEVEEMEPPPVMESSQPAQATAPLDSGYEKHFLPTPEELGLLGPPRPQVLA
T1 sequence (P40189 23-918 partner): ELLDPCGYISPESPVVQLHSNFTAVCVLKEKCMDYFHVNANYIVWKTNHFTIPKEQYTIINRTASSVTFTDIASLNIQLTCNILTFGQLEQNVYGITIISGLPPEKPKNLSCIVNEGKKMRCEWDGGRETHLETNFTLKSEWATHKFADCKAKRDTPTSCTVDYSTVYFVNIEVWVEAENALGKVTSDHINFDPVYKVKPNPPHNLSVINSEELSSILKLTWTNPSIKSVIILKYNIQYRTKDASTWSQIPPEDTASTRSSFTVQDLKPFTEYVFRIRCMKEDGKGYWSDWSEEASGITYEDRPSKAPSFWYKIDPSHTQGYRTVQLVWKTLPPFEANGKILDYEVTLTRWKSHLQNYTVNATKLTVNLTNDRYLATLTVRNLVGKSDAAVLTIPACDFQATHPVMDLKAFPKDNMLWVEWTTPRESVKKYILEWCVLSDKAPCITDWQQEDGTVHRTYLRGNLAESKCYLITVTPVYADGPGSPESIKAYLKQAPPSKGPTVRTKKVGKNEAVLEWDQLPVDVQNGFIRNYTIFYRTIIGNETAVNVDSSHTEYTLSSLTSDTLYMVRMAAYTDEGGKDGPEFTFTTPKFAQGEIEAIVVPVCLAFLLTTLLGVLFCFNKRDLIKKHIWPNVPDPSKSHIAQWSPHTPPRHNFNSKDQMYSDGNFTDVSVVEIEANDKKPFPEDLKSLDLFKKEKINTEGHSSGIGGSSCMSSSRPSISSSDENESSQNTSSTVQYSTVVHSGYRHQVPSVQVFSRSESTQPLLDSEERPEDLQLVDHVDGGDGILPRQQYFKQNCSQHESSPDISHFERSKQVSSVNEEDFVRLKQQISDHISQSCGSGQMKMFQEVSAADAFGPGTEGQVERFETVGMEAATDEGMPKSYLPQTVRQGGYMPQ
Description: A) F11 cells were transfected with 0.5 μg of the pEF/BOS vector, pEF-mycHis CREME9, pEF-mycHishuman WSX-1, or pEF-V5-human CNTF-R in association with 0.5 μg of pCAG-human gp130, or transfected with 0.5 μg of pEF-mycHis human WSX-1 and pEF-V5-human CNTF-R and pCAG-human gp130. To keep the total amounts of transfected vectors to be 1.5 μg, an appropriate amount of the pEFBOS vector was added. The graphs show the results of a binding amount of the biotin-labeled HN to each transfected cell by the detection of immunofluorescence reaction. The protein expression by immunoblot analysis is shown below in photos.
B) F11 cells were transfected with 0.5 μg of pEF-myc His human CREME9 or pEF-mycHis human WSX-1 in association with 0.5 μg of pCAG-human gp130. For competition, 10 μM of non-labeled (cold) HNG or HNA was added for some experiments. Fluorescence signals were detected with a laser-scanning, confocal microscope LSM (Carl Zeiss, Germany) (right panels).
F11 cells (7×10^4/well in 6-well plates) were replated into 96-well plates (7×10^3 cells/well) at 24 hrs after transfection with indicated amounts of the plasmids encoding mycHis-WSX or V5-CNTF-R, and with PCAG-human gp130 if required. […] Immunofluorescence intensity was measured (excitation=485 nm, emission=535 nm) with a spectrofluorometer (Wallac1420 ARVOsx Multi Label Counter). […]

[2] = test system: neuronal cell death by AD-related insults; settings: cited from earlier work

effect of unlabeled peptide on binding of HN to cells expressing WSX-1 and gp130 [1] | Molecule | potency relative to HN [2] [fold] | HN activity of the mutant ([2]; negative control)
nullified | CC[C@H](C)[C@H](NC(=O)[C@H](CCC(=O)O)NC(=O)CNC(=O)[C@@H](NC(=O)[C@H](CC(C)C)NC(=O)[C@H](CC(C)C)NC(=O)[C@H](CC(C)C)NC(=O)[C@H](CC(C)C)NC(=O)[C@H](CS)NC(=O)[C@H](CO)NC(=O)[C@H](Cc1ccccc1)NC(=O)CNC(=O)[C@H](CCCNC(=N)N)NC(=O)[C@@H]1CCCN1C(=O)[C@H](C)NC(=O)[C@@H](N)CCSC)[C@@H](C)O)C(=O)N[C@@H](CC(=O)O)C(=O)N[C@@H](CC(C)C)C(=O)N1CCC[C@H]1C(=O)N[C@H](C(=O)N[C@@H](CCCCN)C(=O)N[C@@H](CCCNC(=N)N)C(=O)N[C@@H](CCCNC(=N)N)C(=O)N[C@@H](C)C(=O)O)C(C)C [HNG, S14 G-Humanin] (H-MAPRGFSCLLLLTGEIDLPVKRRA-OH; N-terminus and C-terminus assumed) | 1000 | 
not | C8A-Humanin (MAPRGFSALLLLTSEIDLPVKRRA) [HNA] |  | null activity
